# Assay results from article PMC11435058, “Synthesis of New Thiazole-Privileged Chalcones as Tubulin Polymerization Inhibitors with Potential Anticancer Activities” (Pharmaceuticals, 2024).
# Where two headings read alike, the source gives them in different places.
# Columns and labels:
# [1] = system: 60 human tumor cell lines panel; experiment: NCI-60 anticancer screen, whole panel (means and ranges over the cell lines); type: cell-based; conditions: for activity at 10 µM: Homo sapiens, 48 h, dose of 10 μM
# [2] = system: HL-60(TB); experiment: NCI-60 anticancer screen (SRB; single dose and five doses); conditions: Homo sapiens; for activity at 10 µM: HL-60, 48 h, read-out: Growth Percentage
# [3] = system: K-562; experiment: as above; conditions: Homo sapiens; for activity at 10 µM: K562, 48 h, read-out: Growth Percentage
# [4] = system: MOLT-4; experiment: as above; conditions: Homo sapiens; for activity at 10 µM: MOLT-4, 48 h, read-out: Growth Percentage
# [5] = system: RPMI-8226; experiment: as above; conditions: Homo sapiens; for activity at 10 µM: RPMI-8226, 48 h, read-out: Growth Percentage
# [6] = system: SR; experiment: as above; conditions: Homo sapiens; for activity at 10 µM: 48 h, read-out: Growth Percentage
# [7] = system: A549/ATCC; experiment: as above; conditions: Homo sapiens; for activity at 10 µM: A549, 48 h, read-out: Growth Percentage
# [8] = system: HOP-62; experiment: as above; conditions: Homo sapiens; for activity at 10 µM: HOP-62, 48 h, read-out: Growth Percentage
# [9] = system: HOP-92; experiment: as above; conditions: Homo sapiens; for activity at 10 µM: HOP-92, 48 h, read-out: Growth Percentage
# [10] = system: COLO 205; experiment: as above; conditions: Homo sapiens; for activity at 10 µM: COLO 205, 48 h, read-out: Growth Percentage
# [11] = system: HCT-15; experiment: as above; conditions: Homo sapiens; for activity at 10 µM: HCT-15, 48 h, read-out: Growth Percentage
# [12] = system: HT29; experiment: as above; conditions: Homo sapiens; for activity at 10 µM: HT-29, 48 h, read-out: Growth Percentage
# [13] = system: KM12; experiment: as above; conditions: Homo sapiens; for activity at 10 µM: KM12, 48 h, read-out: Growth Percentage
# [14] = system: SF-268; experiment: as above; conditions: Homo sapiens; for activity at 10 µM: SF-268, 48 h, read-out: Growth Percentage
# [15] = system: LOX IMVI; experiment: as above; conditions: Homo sapiens; for activity at 10 µM: 48 h, read-out: Growth Percentage
# [16] = system: MALME-3M; experiment: as above; conditions: Homo sapiens; for activity at 10 µM: 48 h, read-out: Growth Percentage
# [17] = system: SK-MEL-5; experiment: as above; conditions: Homo sapiens; for activity at 10 µM: SK-MEL-5, 48 h, read-out: Growth Percentage
# [18] = system: UACC-62; experiment: as above; conditions: Homo sapiens; for activity at 10 µM: UACC-62, 48 h, read-out: Growth Percentage
# [19] = system: IGROV1; experiment: as above; conditions: Homo sapiens; for activity at 10 µM: IGROV-1, 48 h, read-out: Growth Percentage
# [20] = system: NCI/ADR-RES; experiment: as above; conditions: Homo sapiens; for activity at 10 µM: 48 h, read-out: Growth Percentage
# [21] = system: CAKI-1; experiment: as above; conditions: Homo sapiens; for activity at 10 µM: CAKI-1, 48 h, read-out: Growth Percentage
# [22] = system: RXF 393; experiment: as above; conditions: Homo sapiens; for activity at 10 µM: RXF 393, 48 h, read-out: Growth Percentage
# [23] = system: PC-3; experiment: as above; conditions: Homo sapiens; for activity at 10 µM: PC-3, 48 h, read-out: Growth Percentage
# [24] = system: DU-145; experiment: as above; conditions: Homo sapiens; for activity at 10 µM: DU-145, 48 h, read-out: Growth Percentage
# [25] = system: MDA-MB-231/ATCC; experiment: as above; conditions: Homo sapiens; for activity at 10 µM: MDA-MB-231, 48 h, read-out: Growth Percentage
# [26] = system: HS 578T; experiment: as above; conditions: Homo sapiens; for activity at 10 µM: 48 h, read-out: Growth Percentage
# [27] = system: BT-549; experiment: as above; conditions: Homo sapiens; for activity at 10 µM: BT-549, 48 h, read-out: Growth Percentage
# [28] = system: T-47D; experiment: as above; conditions: Homo sapiens, T47D; for activity at 10 µM: 48 h, read-out: Growth Percentage
# [29] = mean over the tested cell lines, read-out: Mean growth percentage
# [30] = range over the cell lines, read-out: growth percentages against most of the tested cells (lowest to highest)
# [31] = five doses, mean graph midpoint over all cell lines
compound,measurement,setting,value
"COc1ccc(/C=C/C(=O)c2sc(=S)[nH]c2C)cc1OC [2o, (E)-3-(3,4-Dimethoxyphenyl)-1-(4-Methyl-2-Thioxo-2,3-Dihydrothiazol-5-yl)Prop-2-En-1-One]",activity at 10 µM,[1]; [29],55.1%
same,activity at 10 µM,[1]; [30],-0.42 to 126%
same,activity at 10 µM,[2],35.6%
same,activity at 10 µM,[3],32.4%
same,activity at 10 µM,[4],73.8%
same,activity at 10 µM,[5],18.6%
same,activity at 10 µM,[6],32.5%
same,activity at 10 µM,[7],64.6%
same,activity at 10 µM,[8],34.1%
same,activity at 10 µM,[9],83.7%
same,activity at 10 µM,[10],116%
same,activity at 10 µM,[11],31.3%
same,activity at 10 µM,[12],97.7%
same,activity at 10 µM,[13],42.2%
same,activity at 10 µM,[14],67.2%
same,activity at 10 µM,[15],26.9%
same,activity at 10 µM,[16],89.6%
same,activity at 10 µM,[17],63.1%
same,activity at 10 µM,[18],63.9%
same,activity at 10 µM,[19],69.5%
same,activity at 10 µM,[20],26.9%
same,activity at 10 µM,[21],42%
same,activity at 10 µM,[22],48.1%
same,activity at 10 µM,[23],68.9%
same,activity at 10 µM,[24],48.1%
same,activity at 10 µM,[25],58.4%
same,activity at 10 µM,[26],84.7%
same,activity at 10 µM,[27],18.9%
same,activity at 10 µM,[28],44.1%
"Cc1[nH]c(=S)sc1C(=O)/C=C/c1ccc(Br)cc1 [2g, (E)-3-(4-Bromophenyl)-1-(4-Methyl-2-Thioxo-2,3-Dihydrothiazol-5-yl)Prop-2-En-1-One]",activity at 10 µM,[1]; [29],34.2%
same,activity at 10 µM,[1]; [30],-34.1 to 109%
same,Log10GI50 _MID,[1]; [31],-5.31 Molar
same,Log10LC50 _MID,[1]; [31],-4.3 Molar
same,Log10TGI _MID,[1]; [31],-4.75 Molar
same,GI50,[2]; HL-60,1.94 µM
same,activity at 10 µM,[2],13.2%
same,CC50,"[2]; HL-60, read-out: LC50",> 100 µM
same,IC (TGI),"[2]; HL-60, read-out: TGI",9.92 µM
same,GI50,[3]; K562,2.73 µM
same,activity at 10 µM,[3],13.6%
same,CC50,"[3]; K562, read-out: LC50",> 100 µM
same,IC (TGI),"[3]; K562, read-out: TGI",> 100 µM
same,GI50,[4]; MOLT-4,3.57 µM
same,activity at 10 µM,[4],30.2%
same,CC50,"[4]; MOLT-4, read-out: LC50",> 100 µM
same,IC (TGI),"[4]; MOLT-4, read-out: TGI",36.6 µM
same,GI50,[5]; RPMI-8226,2.29 µM
same,activity at 10 µM,[5],1.4%
same,CC50,"[5]; RPMI-8226, read-out: LC50",> 100 µM
same,IC (TGI),"[5]; RPMI-8226, read-out: TGI",> 100 µM
same,GI50,[6],2.83 µM
same,activity at 10 µM,[6],8.46%
same,CC50,[6]; read-out: LC50,> 100 µM
same,IC (TGI),[6]; read-out: TGI,23.2 µM
same,GI50,[7]; A549,11.7 µM
same,activity at 10 µM,[7],64.1%
same,CC50,"[7]; A549, read-out: LC50",55.3 µM
same,IC (TGI),"[7]; A549, read-out: TGI",25.4 µM
same,GI50,[8]; HOP-62,3.94 µM
same,activity at 10 µM,[8],11.9%
same,CC50,"[8]; HOP-62, read-out: LC50",61.2 µM
same,IC (TGI),"[8]; HOP-62, read-out: TGI",14 µM
same,GI50,[9]; HOP-92,6.44 µM
same,activity at 10 µM,[9],67.1%
same,CC50,"[9]; HOP-92, read-out: LC50",58.8 µM
same,IC (TGI),"[9]; HOP-92, read-out: TGI",22.5 µM
same,GI50,[10]; COLO 205,13.9 µM
same,activity at 10 µM,[10],90%
same,CC50,"[10]; COLO 205, read-out: LC50",80 µM
same,IC (TGI),"[10]; COLO 205, read-out: TGI",33.3 µM
same,GI50,[11]; HCT-15,2.66 µM
same,activity at 10 µM,[11],5.48%
same,CC50,"[11]; HCT-15, read-out: LC50",36.4 µM
same,IC (TGI),"[11]; HCT-15, read-out: TGI",10 µM
same,GI50,[12]; HT-29,5.09 µM
same,activity at 10 µM,[12],76.3%
same,CC50,"[12]; HT-29, read-out: LC50",57.8 µM
same,IC (TGI),"[12]; HT-29, read-out: TGI",19.3 µM
same,GI50,[13]; KM12,3.27 µM
same,activity at 10 µM,[13],1.17%
same,CC50,"[13]; KM12, read-out: LC50",35.9 µM
same,IC (TGI),"[13]; KM12, read-out: TGI",11 µM
same,GI50,[14]; SF-268,13.5 µM
same,activity at 10 µM,[14],46.1%
same,CC50,"[14]; SF-268, read-out: LC50",64.2 µM
same,IC (TGI),"[14]; SF-268, read-out: TGI",29.5 µM
same,GI50,[15],2.8 µM
same,activity at 10 µM,[15],-5.17%
same,CC50,[15]; read-out: LC50,33.7 µM
same,IC (TGI),[15]; read-out: TGI,10.2 µM
same,GI50,[16],12.5 µM
same,activity at 10 µM,[16],72.9%
same,CC50,[16]; read-out: LC50,67.2 µM
same,IC (TGI),[16]; read-out: TGI,29 µM
same,GI50,[17]; SK-MEL-5,5.82 µM
same,activity at 10 µM,[17],48.8%
same,CC50,"[17]; SK-MEL-5, read-out: LC50",43 µM
same,IC (TGI),"[17]; SK-MEL-5, read-out: TGI",18.4 µM
same,GI50,[18]; UACC-62,5.17 µM
same,activity at 10 µM,[18],46.8%
same,IC (TGI),"[18]; UACC-62, read-out: TGI",18.6 µM
same,GI50,[19]; IGROV-1,3.29 µM
same,activity at 10 µM,[19],37.1%
same,CC50,"[19]; IGROV-1, read-out: LC50",53.4 µM
same,IC (TGI),"[19]; IGROV-1, read-out: TGI",11.9 µM
same,GI50,[20],6.04 µM
same,activity at 10 µM,[20],-13.9%
same,CC50,[20]; read-out: LC50,73.4 µM
same,IC (TGI),[20]; read-out: TGI,23.4 µM
same,GI50,[21]; CAKI-1,10 µM
same,activity at 10 µM,[21],32.8%
same,CC50,"[21]; CAKI-1, read-out: LC50",47.2 µM
same,IC (TGI),"[21]; CAKI-1, read-out: TGI",21.8 µM
same,GI50,[22]; RXF 393,2.58 µM
same,activity at 10 µM,[22],16%
same,CC50,"[22]; RXF 393, read-out: LC50",33 µM
same,IC (TGI),"[22]; RXF 393, read-out: TGI",9.43 µM
same,GI50,[23]; PC-3,4.68 µM
same,activity at 10 µM,[23],48.8%
same,CC50,"[23]; PC-3, read-out: LC50",> 100 µM
same,IC (TGI),"[23]; PC-3, read-out: TGI",26 µM
same,GI50,[24]; DU-145,3.52 µM
same,activity at 10 µM,[24],23.9%
same,CC50,"[24]; DU-145, read-out: LC50",35.3 µM
same,IC (TGI),"[24]; DU-145, read-out: TGI",12 µM
same,GI50,[25]; MDA-MB-231,10.9 µM
same,activity at 10 µM,[25],9.49%
same,CC50,"[25]; MDA-MB-231, read-out: LC50",50.9 µM
same,IC (TGI),"[25]; MDA-MB-231, read-out: TGI",23.5 µM
same,GI50,[26],10.4 µM
same,activity at 10 µM,[26],74.6%
same,CC50,[26]; read-out: LC50,> 100 µM
same,IC (TGI),[26]; read-out: TGI,33 µM
same,GI50,[27]; BT-549,2.6 µM
same,activity at 10 µM,[27],19.5%
same,IC (TGI),"[27]; BT-549, read-out: TGI",7.28 µM
same,GI50,[28],2.77 µM
same,activity at 10 µM,[28],29%
same,CC50,[28]; read-out: LC50,61.7 µM
same,IC (TGI),[28]; read-out: TGI,11.8 µM
